Earlier results as cited in US6815409B2, “Gel laundry detergent and/or pretreater which piles up after dispensing” (Unilever Home & Personal Care USA division of Conopco, Inc., priority 2002, dated 2004).

Settings: chain length 16; cited from Proc. R. Soc. London, A133, 140, 1931

Measured pKa value: 8.5
SMILES: CCCCCCCCCCCCCCCC(=O)O [Fatty acid chain length 16]
